Measurements: article PMC12104674 (Frontiers in Pharmacology, 2025)
Read-outs that look alike come from different tables or passages of the source.

Legend:
[1] = Pyrotinib plasma pharmacokinetics with/without montmorillonite powder (Group A), LC-MS/MS, NCA; type: in vivo, healthy volunteers; conditions: for Tmax: median (minimum, maximum); for Vd/F: read-out: Vz/F
Protocol: (§1) On day 1, all subjects received a single oral dose of 400 mg pyrotinib after breakfast. […] Subjects in Group B received a single oral dose of 400 mg pyrotinib and 4 mg loperamide after breakfast on day 9, followed by additional doses of 2 mg loperamide at 2 h and 4 h post-administration.
(§2) Blood samples were collected at baseline (within 30 min prior to drug administration) and at 1, 2, 3, 4, 5, 6, 7, 8, 10, 12, 24, 48, 72, and 96 h following pyrotinib administration on days 1 and 9 to measure the concentration of pyrotinib in the plasma. After completion of the study on day 13, subjects underwent a final examination and were subsequently discharged. A safety follow-up was conducted between days 16 and 19.
(§3) The analysis of plasma samples for pyrotinib was based on a validated and sensitive liquid chromatography-tandem mass spectrometry (LC-MS/MS) method with high specificity. The plasma samples were stored at −70°C and analyzed within a stability period of 176 days. The calibration range for the standard curve was between 1.00 and 500 ng/mL, and the regression equation used linear fitting with a weighting factor of W = 1/X^2 (bioanalysis method validation report, data on file). In each batch of analysis, the number of quality control (QC) samples accounted for more than 5% of the unknown samples in that batch. […] Representative chromatograms of pyrotinib at the LLOQ (lower limit of quantification) and in a plasma sample can be found in the Supplementary Material.
(§4) The individual pharmacokinetic parameters of pyrotinib would be calculated using non-compartmental analysis (NCA) and summarized by groups and combination status with descriptive statistics. To estimate the difference in the least-square means between the combination treatment and pyrotinib alone, a mixed-effects model was used to analyze the natural log-transformed pharmacokinetic parameters of pyrotinib (including AUC0- ∞ , AUC0-t, and Cmax) for each group. The model included treatment as a fixed effect and subject as a random effect. Results were exponentiated to obtain geometric least-squares means, geometric mean ratios, and corresponding 90% confidence intervals (CIs) on the original scale. […] To account for a 10% dropout rate, 18 subjects were planned for each of Groups A and B, resulting in a total of 36 subjects.

[2] = Pyrotinib plasma pharmacokinetics with/without loperamide (Group B), LC-MS/MS, NCA; type: in vivo, healthy volunteers
Protocol: as §1, §2, §3, §4

[3] = Safety analysis (TEAEs), Group A; type: in vivo, healthy volunteers
Protocol: (§5) As summarized in Figure 1, the participants were divided into two groups: […] On day 1, all subjects received a single oral dose of 400 mg pyrotinib after breakfast. […] Subjects were instructed to have a light meal the night before the administration of the drug and to fast for 10 h overnight. Safety assessments included adverse events (AEs), physical examinations, vital signs, 12-lead ECGs, and clinical laboratory tests (hematology, serum chemistry, and urinalysis).

[4] = Safety analysis (TEAEs), Group B; type: in vivo, healthy volunteers
Protocol: as §5

[5] = set-up: method as in data on file; conditions: healthy volunteers, ref data on file, cited from earlier work
[6] = test system: untreated HER2-positive metastatic breast cancer; conditions: cited from earlier work
CYP3A4 [7] = experiment: Calculated R1 / R1,gut for reversible CYP3A4 inhibition by loperamide
CYP3A4 [8] = test system: CYP3A4; set-up: method as in Marechal et al., 2006; conditions: CYP3A4 inhibition; ref Marechal et al., 2006; cited from earlier work
[9] = cited from earlier work; for bioavailability: oral loperamide, significant first-pass effect, ref IMODIUM package insert (2016)
albumin = conditions: of loperamide available in blood; cited from earlier work
[10] = combination with montmorillonite powder/pyrotinib alone
[11] = human, plasma, oral, Group A, pyrotinib alone, 400 mg, day 1, geometric mean (geometric CV)
[12] = with montmorillonite powder 2 h after pyrotinib vs. pyrotinib alone
[13] = combination with loperamide/pyrotinib alone
[14] = with loperamide vs. pyrotinib alone

SMILES: CCOc1cc2ncc(C#N)c(Nc3ccc(OCc4ccccn4)c(Cl)c3)c2cc1NC(=O)/C=C/[C@H]1CCCN1C [Pyrotinib]
- CL/F ([1]; Group A, 400 mg pyrotinib then 3 g montmorillonite powder 2 h later, day 9, geometric mean (geometric CV)): 315 L/h
- CL/F ([1]; Group A, pyrotinib alone, 400 mg, day 1, geometric mean (geometric CV)): 213 L/h
- CL/F ([1]; Group A, pyrotinib alone, 400 mg, day 1, geometric mean (geometric CV), listed as Pyrtonib): 213 (40.5) L/h
- geometric mean ratio (90% CI), AUC0-t [1, 10]: 0.669 (0.601, 0.745)
- geometric mean ratio (90% CI), AUC0-∞ [1, 10]: 0.676 (0.610, 0.749)
- geometric mean ratio (90% CI), Cmax [1, 10]: 0.733 (0.670, 0.803)
- half-life ([1]; human, plasma, oral): 16.3 h
- AUC(0-inf) ([1]; human, plasma, oral, 400 mg, Group A, pyrotinib alone, 400 mg, day 1, geometric mean (geometric CV), read-out: AUC0-∞): 1880 ng·h/mL
- Tmax ([1]; human, plasma, oral, 400 mg, Group A, pyrotinib alone, 400 mg, day 1): 5 h
- AUC(0-t) ([1]; human, plasma, oral, 400 mg, Group A, pyrotinib alone, mixed-effects model, read-out: Geometric least-square mean AUC0-t): 1830 ng·h/mL
- AUC(0-inf) ([1]; human, plasma, oral, 400 mg, Group A, pyrotinib alone, mixed-effects model, read-out: Geometric least-square mean AUC0-∞): 1880 ng·h/mL
- AUC(0-inf) ([1]; human, plasma, oral, Group A, 400 mg pyrotinib then 3 g montmorillonite powder 2 h later, day 9, geometric mean (geometric CV), read-out: AUC0-∞): 1270 ng·h/mL
- Tmax ([1]; human, plasma, oral, Group A, 400 mg pyrotinib then 3 g montmorillonite powder 2 h later, day 9): 3.51 h
- decrease in Tmax ([1]; human, plasma, oral, with montmorillonite powder vs. pyrotinib alone, read-out: time to maximum concentration earlier by): 1.5 h
- Cmax [1, 11]: 105 ng/mL
- Vd/F [1, 11]: 4580 L
- half-life ([1]; human, plasma, oral, Group A, pyrotinib alone, 400 mg, day 1, mean (SD)): 15.5 h
- Vd/F ([1]; human, plasma, oral): 7120 L
- AUC(0-t) ([1]; human, Group A, pyrotinib alone, single oral 400 mg after breakfast, day 1, plasma pyrotinib, geometric mean (geometric CV), read-out: AUC0-t): 1840 ng·h/mL
- reduction in exposure of pyrotinib ([1]; montmorillonite powder at 2-h interval): 33%
- decrease in AUC0-t of pyrotinib [1, 12]: 33.1%
- decrease in AUC0-∞ of pyrotinib [1, 12]: 32.4%
- decrease in Cmax of pyrotinib [1, 12]: 26.7%
- change in t1/2 of pyrotinib ([1]; with montmorillonite powder vs. pyrotinib alone): no significant change
- CL/F ([2]; Group B, 400 mg pyrotinib + loperamide 4+2+2 mg, day 9, geometric mean (geometric CV)): 160 L/h
- CL/F ([2]; Group B, pyrotinib alone, 400 mg, day 1, geometric mean (geometric CV)): 189 L/h
- CL/F ([2]; Group B, pyrotinib alone, 400 mg, day 1, geometric mean (geometric CV), listed as Pyrtonib): 189 (26.7) L/h
- geometric mean ratio (90% CI), AUC0-t [2, 13]: 1.18 (1.08, 1.28)
- geometric mean ratio (90% CI), AUC0-∞ [2, 13]: 1.19 (1.09, 1.29)
- geometric mean ratio (90% CI), Cmax [2, 13]: 0.946 (0.867, 1.03)
- AUC(0-t) ([2]; human, oral, Group B, 400 mg pyrotinib + 4 mg loperamide, then 2 mg loperamide at 2 and 4 h, day 9, plasma pyrotinib, geometric mean (geometric CV), read-out: AUC0-t): 2430 ng·h/mL
- AUC(0-inf) ([2]; human, plasma, oral, 400 mg, Group B, pyrotinib alone, 400 mg, day 1, geometric mean (geometric CV), read-out: AUC0-∞): 2110 ng·h/mL
- AUC(0-t) ([2]; human, plasma, oral, 400 mg, Group B, pyrotinib alone, mixed-effects model, read-out: Geometric least-square mean AUC0-t): 2060 ng·h/mL
- AUC(0-inf) ([2]; human, plasma, oral, 400 mg, Group B, pyrotinib alone, mixed-effects model, read-out: Geometric least-square mean AUC0-∞): 2110 ng·h/mL
- AUC(0-inf) ([2]; human, plasma, oral, Group B, 400 mg pyrotinib + loperamide 4+2+2 mg, day 9, geometric mean (geometric CV), read-out: AUC0-∞): 2500 ng·h/mL
- Cmax ([2]; human, plasma, oral, Group B, pyrotinib alone, 400 mg, day 1, geometric mean (geometric CV)): 124 ng/mL
- Vd/F ([2]; human, plasma, oral, Group B, pyrotinib alone, 400 mg, day 1, geometric mean (geometric CV), read-out: Vz/F): 4520 L
- half-life ([2]; human, plasma, oral, Group B, pyrotinib alone, 400 mg, day 1, mean (SD)): 17.3 h
- Tmax ([2]; human, plasma, oral, Group B, pyrotinib alone, 400 mg, day 1, median (minimum, maximum)): 4.98 h
- AUC(0-t) ([2]; human, Group B, pyrotinib alone, single oral 400 mg after breakfast, day 1, plasma pyrotinib, geometric mean (geometric CV), read-out: AUC0-t): 2060 ng·h/mL
- change in median Tmax of pyrotinib [2, 14]: no significant change
- decrease in Cmax of pyrotinib [2, 14]: approximately 5.4%
- increase in AUC0-t of pyrotinib [2, 14]: approximately 18%
- increase in AUC0-∞ of pyrotinib [2, 14]: ~19%
- incidence of hypertriglyceridemia ([3]; Group A): 11.1%
- serious adverse events ([3]; Group A): No serious adverse events
- number of treatment-emergent adverse events (TEAEs) ([3]; Group A (N = 18)): 11
- subjects who experienced TEAEs ([3]; Group A (N = 18), pyrotinib 400 mg day 1 and pyrotinib + montmorillonite powder day 9): eight
- severity of TEAEs ([3]; Group A, all TEAEs): mild (Grade 1)
- incidence of each other TEAE ([3]; Group A, hypercholesterolemia, nausea, abdominal distension, ALT elevation, AST elevation, bradycardia, elevated blood bilirubin, upper respiratory tract infection, orthostatic hypotension (each)): 5.6%
- incidence of hypertriglyceridemia ([4]; Group B): 22.2%
- incidence of hyperuricemia ([4]; Group B): 11.1%
- incidence of oral ulcer ([4]; Group B): 11.1%
- incidence of rash ([4]; Group B): 11.1%
- serious adverse events ([4]; Group B): No serious adverse events
- number of treatment-emergent adverse events (TEAEs) ([4]; Group B (N = 18)): 18
- subjects who experienced TEAEs ([4]; Group B (N = 18), pyrotinib 400 mg day 1 and pyrotinib + loperamide day 9): 12 subjects
- incidence of each other TEAE ([4]; Group B, nausea, abdominal distension, PR interval prolongation on ECG, increased heart rate, increased total bile acid, headache, dizziness (each)): 5.6%
- time to peak concentration ([5]; oral 400 mg pyrotinib): approximately 5 h
- elimination half-life [5]: approximately 18 h
- progression-free survival (PFS) ([6]; pyrotinib combined with trastuzumab and docetaxel, ref Ma et al., 2023): 24.3 months
- incidence of diarrhea grade 3 or higher ([6]; pyrotinib group (138/297), ref Ma et al., 2023): 46%
- incidence of diarrhea ([6]; pyrotinib group (293/297), ref Ma et al., 2023): 99%
- hazard ratio (PFS) ([6]; pyrotinib vs. placebo, each with trastuzumab and docetaxel, ref Ma et al., 2023): 0.41
- duration of diarrhea ([6]; usually, ref Ma et al., 2023): 2 to 3 days

SMILES: CN(C)C(=O)C(CCN1CCC(O)(c2ccc(Cl)cc2)CC1)(c1ccccc1)c1ccccc1 [loperamide]
- calculated R1 for reversible inhibition (CYP3A4 [7]; CYP3A4): less than 1.0001
- calculated R1,gut (CYP3A4 [7]; based on molecular weight of 477 Dalton, guidance cut off 11): 1,342.7
- median PFS by antidiarrheal used in diarrhea management ([6]; ad hoc analysis, ref data on file): 19.5 months
- bioavailability [9]: 0.3%
- bioavailability ([9]; listed as Loperamide): about 0.3%
- fraction bound to albumin (albumin): 95%
